Results from US11214803B2, “Modulators of YAP1 expression” (Ionis Pharmaceuticals, Inc., priority 2019, dated 2022).
Marks after values point to notes of the source that are not given here. Strand notation (5' to 3'): a small letter for the sugar, then the base; units joined by * are phosphorothioate-linked, units joined directly phosphodiester-linked; [ ] holds rarer units or linkages, { } end groups; capitals alone tell only the bases. k = constrained ethyl (cEt); [5mC] = 5-methylcytosine; d = 2'-deoxy (DNA)

Test system: Yap1 mRNA
Test: Antisense inhibition of human Yap1 in A-431 cells by cEt gapmers, single dose (Example 4, RTS4814)
Assay type: cell-based
Conditions: Table 14; A-431 cells, 5,000 cells per well, free uptake, 2,000 nM, approximately 48 hours; RTS4814; normalized to RIBOGREEN; Yap1 mRNA relative to untreated control; * = targets amplicon region of primer probe set
How it was run: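 Values are % UTC: Yap1 mRNA by quantitative RT-PCR, normalized to RIBOGREEN total RNA. Cells were exposed ~48 h to 2,000 nM oligonucleotide without transfection. Oligonucleotides were 16-nucleoside gapmers with three cEt nucleosides per wing, ten-deoxy gap, P=S linkages throughout.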

Row | Substance | YAP1 (% UTC)
1 | 1076288 (k[5mC]*kT*kT*dA*dT*dT*dT*dA*dG*d[5mC]*dA*dT*dA*kG*kT*kG; antisense) [Compound 1076288] | 3
2 | 1075680 (kA*kT*kT*dA*dT*dT*dA*d[5mC]*d[5mC]*d[5mC]*d[5mC]*dT*dT*k[5mC]*kT*kA; antisense) [Compound 1075680] | 73
3 | 1076448 (k[5mC]*kT*kT*dA*dT*dA*dA*dT*dG*d[5mC]*dA*dA*dT*k[5mC]*k[5mC]*kT; antisense) [Compound 1076448] | 2
4 | 1074400 (antisense kG*kA*kT*dT*dT*dA*dG*dA*dA*dT*dT*d[5mC]*dA*kG*kT*k[5mC]) [Compound 1074400] | 42
5 | 1075104 (antisense kA*kT*kT*dA*dT*dA*dA*dG*dG*dT*d[5mC]*d[5mC]*dT*kA*k[5mC]*kA) [Compound 1075104] | 67
6 | 1074272 (antisense kT*kA*kT*dA*dG*dT*dA*dA*dA*dT*dT*dT*d[5mC]*kT*k[5mC]*k[5mC]) [Compound 1074272] | 16
7 | 1075776 (kA*kT*kG*dT*dG*dA*dT*dA*dT*dG*dG*dA*dT*kT*k[5mC]*kT; antisense) [Compound 1075776] | 10

Same assay, conditions: Table 15; A-431 cells, 5,000 cells per well, free uptake, 2,000 nM, approximately 48 hours; RTS4814; normalized to RIBOGREEN; Yap1 mRNA relative to untreated control; * = targets amplicon region of primer probe set

Row | Substance | YAP1 (% UTC)
8 | 1075873 (k[5mC]*kT*kT*dG*dA*dA*dT*dA*d[5mC]*dT*dA*d[5mC]*dA*k[5mC]*k[5mC]*kA; antisense) [Compound 1075873] | 16 % UTC
9 | 1074433 (antisense kA*kA*kG*dT*d[5mC]*dT*dG*dA*dG*dT*dA*dT*dT*kT*kA*kG) [Compound 1074433] | 5* % UTC
10 | 1075617 (kT*kA*kA*dG*dA*dA*d[5mC]*dG*dA*d[5mC]*dA*dT*dA*kT*kG*k[5mC]; antisense) [Compound 1075617] | 27 % UTC
11 | 1074977 (antisense k[5mC]*kT*kT*dG*dT*dT*d[5mC]*dT*dA*dT*dT*dG*dG*kA*kA*kG) [Compound 1074977] | 94 % UTC
12 | 1076417 (k[5mC]*kT*kT*dT*dA*d[5mC]*dA*d[5mC]*d[5mC]*dG*dA*dA*dA*kT*kG*kA; antisense) [Compound 1076417] | 42 % UTC
13 | 1076257 (k[5mC]*kT*kA*dA*dG*dA*dA*dA*d[5mC]*dT*d[5mC]*dA*dT*kA*kG*kT; antisense) [Compound 1076257] | 54 % UTC

Same assay, conditions: Table 16; A-431 cells, 5,000 cells per well, free uptake, 2,000 nM, approximately 48 hours; RTS4814; normalized to RIBOGREEN; Yap1 mRNA relative to untreated control cells

Row | Substance | YAP1 (% UTC)
14 | 1074626 (antisense k[5mC]*kT*kG*dT*dT*dA*dT*dG*dA*dA*d[5mC]*d[5mC]*d[5mC]*kT*kT*kG) [Compound 1074626] | 5
15 | 1074594 (antisense kT*kA*kG*dG*dA*dG*d[5mC]*dA*dA*dG*dT*d[5mC]*dT*kT*kG*kT) [Compound 1074594] | 6
16 | 1074146 (antisense kG*kA*kA*dG*d[5mC]*dG*dG*d[5mC]*dG*dA*d[5mC]*dG*dG*k[5mC]*kT*kG) [Compound 1074146] | 91
17 | 1075618 (kT*kT*kT*dT*dA*dA*dG*dA*dA*d[5mC]*dG*dA*d[5mC]*kA*kT*kA; antisense) [Compound 1075618] | 69
18 | 1075714 (kA*kA*kT*dT*dA*d[5mC]*dA*dA*dT*d[5mC]*dA*dA*d[5mC]*k[5mC]*kT*kT; antisense) [Compound 1075714] | 42
19 | 1075138 (antisense kA*kA*kT*dA*dA*dT*dA*dG*dA*dT*dA*d[5mC]*dT*kG*k[5mC]*k[5mC]) [Compound 1075138] | 4
20 | 1076034 (kA*kA*kT*dT*dA*dG*dA*dA*dA*d[5mC]*dT*dT*dG*kG*k[5mC]*k[5mC]; antisense) [Compound 1076034] | 74
21 | 1074402 (antisense kT*kT*kA*dT*dG*dG*dA*dA*dA*dT*dT*dT*d[5mC]*k[5mC]*kG*kG) [Compound 1074402] | 25

Same assay, conditions: Table 17; A-431 cells, 5,000 cells per well, free uptake, 2,000 nM, approximately 48 hours; RTS4814; normalized to RIBOGREEN; Yap1 mRNA relative to untreated control cells

Row | Substance | YAP1 (% UTC)
22 | 1075043 (antisense k[5mC]*k[5mC]*k[5mC]*d[5mC]*dA*dA*dA*dA*dG*d[5mC]*d[5mC]*d[5mC]*dT*kA*k[5mC]*kT) [Compound 1075043] | 73
23 | 1075235 (antisense kA*kG*kT*dA*dA*dA*dT*dA*d[5mC]*dT*d[5mC]*dT*dA*kG*kT*kT) [Compound 1075235] | 38
24 | 1075875 (kA*k[5mC]*kT*dT*dA*dA*d[5mC]*dA*dA*d[5mC]*d[5mC]*d[5mC]*dT*kA*k[5mC]*kG; antisense) [Compound 1075875] | 72
25 | 1075939 (k[5mC]*kT*kT*dG*dA*dA*dT*dA*dT*dA*dT*dG*dG*kG*kT*kT; antisense) [Compound 1075939] | 6
26 | 1075363 (kA*k[5mC]*kA*d[5mC]*dA*dA*dT*dA*dT*d[5mC]*dA*dA*dG*kT*k[5mC]*k[5mC]; antisense) [Compound 1075363] | 25
27 | 1075587 (k[5mC]*kT*kT*dA*dT*dT*dA*dG*d[5mC]*dA*d[5mC]*d[5mC]*dT*kG*kG*kG; antisense) [Compound 1075587] | 50
28 | 1074819 (kA*kA*kG*d[5mC]*dA*d[5mC]*dT*dG*dA*dA*dT*dA*dT*kT*kG*k[5mC]; antisense) [Compound 1074819] | 33
29 | 1074179 (antisense k[5mC]*kG*kG*dG*dA*dT*d[5mC]*d[5mC]*dA*dT*dG*dG*d[5mC]*kT*kT*k[5mC]) [Compound 1074179] | 49
30 | 1075203 (antisense kT*kA*kA*dT*dT*dA*dT*dA*dT*dA*dA*dG*dG*k[5mC]*kT*kG) [Compound 1075203] | 68

Same assay, conditions: Yap1 mRNA remaining as percent of untreated control; 3-10-3 cEt gapmers; A-431 cells; Table 36

Row | Substance | YAP1 (% UTC)
31 | 1075190 (kT*kA*kT*d[5mC]*dA*dA*dG*dG*dA*dT*dT*d[5mC]*dA*kG*kT*kA; antisense) [compound 1075190] | 45 % UTC
32 | 1074390 (k[5mC]*kT*kG*d[5mC]*dA*dG*dA*d[5mC]*dT*dT*dG*dG*d[5mC]*kA*kT*k[5mC]; antisense) [compound 1074390] | 64 % UTC
33 | 1074902 (antisense k[5mC]*kT*kA*dT*dT*dA*dA*d[5mC]*dT*dT*dT*dT*dG*kG*kG*k[5mC]) [compound 1074902] | 54 % UTC
34 | 1074518 (kA*kA*kA*dT*dG*d[5mC]*dA*dT*dA*d[5mC]*dA*dA*dA*kG*k[5mC]*kG; antisense) [compound 1074518] | 13 % UTC
35 | 1074422 (kA*kA*kA*d[5mC]*dA*dG*dG*d[5mC]*dT*d[5mC]*dA*d[5mC]*dT*kT*k[5mC]*k[5mC]; antisense) [compound 1074422] | 9* % UTC

Same assay, conditions: Yap1 mRNA remaining as percent of untreated control; 3-10-3 cEt gapmers; A-431 cells; Table 37

Row | Substance | YAP1 (% UTC)
36 | 1076567 (kG*kA*kT*dT*dA*d[5mC]*dA*dG*dT*dG*dA*d[5mC]*dA*kT*kT*k[5mC]; antisense) [compound 1076567] | 10
37 | 1075607 (antisense kA*kA*kA*dA*d[5mC]*dG*dG*dT*dG*dT*dG*dA*dA*kG*kA*kA) [compound 1075607] | 45
38 | 1074519 (kA*k[5mC]*kT*dA*d[5mC]*dT*dA*dG*dT*d[5mC]*dA*dT*dG*kT*kA*kT; antisense) [compound 1074519] | 45
39 | 1075479 (kG*kA*k[5mC]*dA*dA*dT*dA*dA*dA*dT*d[5mC]*dT*dG*k[5mC]*k[5mC]*kT; antisense) [compound 1075479] | 77
40 | 1074391 (kG*kT*k[5mC]*dA*dG*dA*dA*d[5mC]*dT*d[5mC]*dA*dA*dA*kG*k[5mC]*kT; antisense) [compound 1074391] | 14
